Tests used:
VEGF-R2 (KDR) = VEGF-R2 (KDR) (Homo sapiens, UniProt P35968); experiment: Inhibition of the tyrosine kinase activity of VEGF-R2 (KDR); type: biochemical
Description: Inhibition of the Tyrosine Kinase Activity of VEGF-R2 (KDR)
The inhibition test is carried out as described above.

[1] = Percutaneous penetration/permeation in static Franz-type diffusion cells with split-thickness human cadaver skin; type: in vitro ADME
Description: Frozen human dorsal cadaver skin (Caucasian; back skin) was obtained from the National Disease Research Interchange, Philadelphia, USA. Skin from three different donors was used;
Thawed skin samples were dermatomed to 0.7 mm with an Aesculap dermatome to obtain “split-thickness” skin.
Percutaneous penetration was studied in vitro by means of static Franz-type diffusion cells with phosphate buffered saline/fetal calf serum 2:1 as receptor fluid at 32° in triplicates for 48 hours. The compounds were applied as 1% solutions (300 μl each) in propylene glycol (solution a) or in propylene glycol/oleyl alcohol 9:1 (solution b). Samples of 100 μl were taken 5 to 7 times and replaced by fresh receptor fluid as described previously (Schmook, et al., Skin Pharmacol. 1993, 6:116-124).
Drug analysis was performed with specimens of the exposed skin (at the end of the 48 hours experiment), from which the stratum corneum had been removed by 20 strippings with an adhesive tape. The weighed skin samples were homogenized in 0.2 M ammonium phosphate buffer (pH 7.0). The homogenates were extracted with ethyl acetate and processed as described (Schmook, et al 1993).

[2] = as above; type: in vitro ADME; details: batch of skin 4
[3] = solution b (1% in propylene glycol/oleyl alcohol 9:1), batch of skin 3
[4] = solution b (1% in propylene glycol/oleyl alcohol 9:1), batch of skin 3, 48 hours, stratum corneum removed
[5] = solution b (1% in propylene glycol/oleyl alcohol 9:1), batch of skin 1
[6] = solution b (1% in propylene glycol/oleyl alcohol 9:1), batch of skin 1, 48 hours, stratum corneum removed
[7] = solution b (1% in propylene glycol/oleyl alcohol 9:1), batch of skin 2
[8] = solution b (1% in propylene glycol/oleyl alcohol 9:1), batch of skin 2, 48 hours, stratum corneum removed
[9] = solution c (propylene glycol containing 0.1% DMSO)
[10] = solution d (propylene glycol containing 1% DMSO)
[11] = solution a (propylene glycol), batch of skin 4

Sequence of VEGF-R2 (KDR) (P35968 20-1356, species assumed): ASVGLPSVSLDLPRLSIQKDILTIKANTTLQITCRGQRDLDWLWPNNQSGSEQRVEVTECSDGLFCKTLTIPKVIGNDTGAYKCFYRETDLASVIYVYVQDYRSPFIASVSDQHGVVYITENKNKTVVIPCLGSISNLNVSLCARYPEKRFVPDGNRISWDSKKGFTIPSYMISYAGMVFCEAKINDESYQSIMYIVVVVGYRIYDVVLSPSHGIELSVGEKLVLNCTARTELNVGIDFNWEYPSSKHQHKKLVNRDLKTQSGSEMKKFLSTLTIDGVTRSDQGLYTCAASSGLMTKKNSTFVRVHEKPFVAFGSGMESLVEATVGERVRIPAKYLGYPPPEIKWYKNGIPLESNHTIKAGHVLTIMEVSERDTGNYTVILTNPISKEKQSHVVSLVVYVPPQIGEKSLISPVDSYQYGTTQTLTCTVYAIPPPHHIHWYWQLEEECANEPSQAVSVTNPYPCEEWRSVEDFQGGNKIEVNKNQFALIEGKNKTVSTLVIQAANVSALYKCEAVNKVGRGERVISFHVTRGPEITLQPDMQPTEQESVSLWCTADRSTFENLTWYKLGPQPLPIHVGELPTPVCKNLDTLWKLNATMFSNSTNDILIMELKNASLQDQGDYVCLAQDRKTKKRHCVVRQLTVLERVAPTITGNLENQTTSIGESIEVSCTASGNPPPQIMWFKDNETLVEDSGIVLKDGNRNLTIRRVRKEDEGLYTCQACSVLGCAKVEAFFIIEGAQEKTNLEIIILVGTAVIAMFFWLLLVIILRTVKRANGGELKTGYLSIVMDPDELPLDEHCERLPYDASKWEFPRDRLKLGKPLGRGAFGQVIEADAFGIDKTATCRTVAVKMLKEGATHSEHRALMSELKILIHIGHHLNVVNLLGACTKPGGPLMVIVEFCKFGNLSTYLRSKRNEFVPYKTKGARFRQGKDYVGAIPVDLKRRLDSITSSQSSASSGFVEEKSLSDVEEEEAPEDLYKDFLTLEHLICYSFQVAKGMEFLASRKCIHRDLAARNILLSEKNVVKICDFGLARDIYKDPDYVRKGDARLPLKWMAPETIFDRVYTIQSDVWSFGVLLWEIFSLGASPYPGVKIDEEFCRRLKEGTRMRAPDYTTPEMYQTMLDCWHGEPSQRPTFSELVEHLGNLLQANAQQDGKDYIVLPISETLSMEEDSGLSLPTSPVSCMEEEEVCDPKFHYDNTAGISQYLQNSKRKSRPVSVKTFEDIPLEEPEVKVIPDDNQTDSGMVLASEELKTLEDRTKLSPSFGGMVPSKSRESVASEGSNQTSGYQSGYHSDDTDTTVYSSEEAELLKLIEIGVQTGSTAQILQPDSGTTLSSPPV

CC(=O)Nc1nccc(Oc2ccc3c(c2)OCCN3C(=O)Nc2ccc(C)c(C(F)(F)F)c2)n1 [Example 20, 7-(2-Acetylamino-pyrimidin-4-yloxy)-2,3-dihydro-benzo[1,4]oxazine-4-carboxylic acid (4-methyl-3-trifluoromethyl-phenyl)-amide]
IC50 (VEGF-R2 (KDR)): 24 nM

CNc1cc(Oc2ccc3c(c2)OCCN3C(=O)Nc2cccc(C(F)(F)F)c2)ncn1 [Example 9, 7-(6-Methylamino-pyrimidin-4-yloxy)-2,3-dihydro-benzo[1,4]oxazine-4-carboxylic acid (3-trifluoromethyl-phenyl)-amide]
IC50 (VEGF-R2 (KDR)): 29 nM | melting point: 180 °C

CC(C)(C)c1ccc(NC(=O)c2cccc3cc(Oc4ccnc(N)n4)ccc23)cc1 [17b)]
IC50 (VEGF-R2 (KDR)): 54 nM

Nc1nccc(Oc2ccc3c(c2)OCCN3C(=O)Nc2ccc(C(F)(F)F)c(C(F)(F)F)c2)n1 [12a)]
IC50 (VEGF-R2 (KDR)): 52 nM

Nc1nccc(Oc2ccc3c(C(=O)Nc4ccc(F)c(C(F)(F)F)c4)cccc3c2)n1
Permeation rate [1, 3]: 19 ± 3 ng/mL/h | Skin concentration [1, 4]: 46 ± 13 µg/g

CCN1CCN(Cc2ccc(-c3cc4c(N[C@H](C)c5ccccc5)ncnc4[nH]3)cc2)CC1
Permeation rate [1, 5]: 182 ± 68 ng/mL/h | Skin concentration [1, 6]: 35 ± 12 µg/g | Permeation rate [1, 7]: 189 ± 43 ng/mL/h | Skin concentration [1, 8]: 72 ± 24 µg/g

Cc1ccc(NC(=O)c2cccc3cc(Oc4ccnc(N)n4)ccc23)cc1C(F)(F)F [Example 15, 6-(2-Amino-pyrimidin-4-yloxy)-naphthalene-1-carboxylic acid (4-methyl-3-trifluoromethyl-phenyl)-amide]
IC50 (VEGF-R2 (KDR)): 20 nM

Nc1cc(Oc2ccc3c(C(=O)Nc4cccc(C(F)(F)F)c4)cccc3c2)ncn1 [drawing 77]
Permeation rate [1, 3]: 12 ± 4 ng/mL/h | Skin concentration [1, 4]: 34 ± 3 µg/g

Nc1cc(Oc2ccc3c(C(=O)Nc4ccc(F)c(C(F)(F)F)c4)cccc3c2)ncn1 [drawing 78]
Permeation rate [1, 3]: 22 ± 3 ng/mL/h | Skin concentration [1, 4]: 19 ± 7 µg/g

COC(=O)Nc1nccc(Oc2ccc3c(c2)OCCN3C(=O)Nc2ccc(C)c(C(F)(F)F)c2)n1 [Example 21, 7-(2-Methoxycarbonylamino-pyrimidin-4-yloxy)-2,3-dihydro-benzo[1,4]oxazine-4-carboxylic acid (4-methyl-3-trifluoromethyl-phenyl)-amide]
IC50 (VEGF-R2 (KDR)): 19 nM

Nc1nccc(Oc2ccc3c(c2)OCCN3C(=O)Nc2ccc(F)c(C(F)(F)F)c2)n1 [12d)]
IC50 (VEGF-R2 (KDR)): 73 nM

Nc1nccc(Oc2ccc3c(C(=O)Nc4ccc(C(F)(F)F)cc4)cccc3c2)n1 [17a)]
IC50 (VEGF-R2 (KDR)): 19 nM

Cc1ccc(NC(=O)N2CCOc3cc(Oc4ccnc(N)n4)ccc32)cc1C(F)(F)F [12f), 7-(2-amino-pyrimidin-4-yloxy)-2,3-dihydro-benzo[1,4]oxazine-4-carboxylic acid (4-methyl-3-trifluoromethyl-phenyl)-amide]
IC50 (VEGF-R2 (KDR)): 17 nM

Nc1nccc(Oc2ccc3c(c2)OCCN3C(=O)Nc2cccc(C(F)(F)F)c2)n1 [Example 10, 7-(2-Amino-pyrimidin-4-yloxy)-2,3-dihydro-benzo[1,4]oxazine-4-carboxylic acid (3-trifluoromethyl-phenyl)-amide]
IC50 (VEGF-R2 (KDR)): 37 nM | melting point: 161 to 163 °C

CC(=O)Nc1nccc(Oc2ccc3c(C(=O)Nc4cccc(C(F)(F)F)c4)cccc3c2)n1 [Example 18, 6-(2-Acetylamino-pyrimidin-4-yloxy)-naphthalene-1-carboxylic acid (3-trifluoromethyl-phenyl)-amide]
IC50 (VEGF-R2 (KDR)): 21 nM | melting point: 216 to 217 °C

Nc1nccc(Oc2ccc3c(c2)OCCN3C(=O)Nc2ccc(Cl)c(C(F)(F)F)c2)n1 [12b)]
IC50 (VEGF-R2 (KDR)): 10 nM

Nc1nccc(Oc2ccc3c(C(=O)Nc4cccc(C(F)(F)F)c4)cccc3c2)n1 [formula Ip]
Permeation rate [2, 9]: <2 ng/mL/h | Skin concentration [2, 9]: 4.4 ± 3.1 µg/g | Permeation rate [2, 10]: <2 ng/mL/h | Skin concentration [2, 10]: 4.7 ± 2.9 µg/g | Permeation rate [1, 11]: <2 ng/mL/h | Skin concentration [1, 11]: 6.2 ± 1.5 µg/g

Clc1ccc(Nc2nnc(Cc3ccncc3)c3ccccc23)cc1
Permeation rate [1, 5]: 286 ± 90 ng/mL/h | Skin concentration [1, 6]: 10.4 ± 2.0 µg/g

Nc1nccc(Oc2ccc3c(C(=O)Nc4cccc(C(F)(F)F)c4)cccc3c2)n1 [drawing 76]
Permeation rate [1, 7]: 13 ± 3 ng/mL/h | Skin concentration [1, 8]: 44 ± 17 µg/g | Permeation rate [1, 3]: 8 ± 2 ng/mL/h | Skin concentration [1, 4]: 24 ± 6 µg/g

CNc1cc(Oc2ccc3c(c2)OCCN3C(=O)Nc2ccc(C)c(C(F)(F)F)c2)ncn1 [Example 8, 7-(6-Methylamino-pyrimidin-4-yloxy)-2,3-dihydro-benzo[1,4]oxazine-4-carboxylic acid (4-methyl-3-trifluoromethyl-phenyl)-amide]
IC50 (VEGF-R2 (KDR)): 46 nM | melting point: 180 to 182 °C

CN1CCN(Cc2ccc(NC(=O)N3CCOc4cc(Oc5ccnc(N)n5)ccc43)cc2C(F)(F)F)CC1 [Example 22, 7-(2-Amino-pyrimidin-4-yloxy)-2,3-dihydro-benzo[1,4]oxazine-4-carboxylic acid [4-(4-methyl-piperazin-1-ylmethyl)-3-trifluoromethyl-phenyl]-amide]
IC50 (VEGF-R2 (KDR)): 96 nM
